Data published in patent US20040121307A1, “Early detection of cellular differentiation using optophoresis” (Genoptix, Inc, priority 2002, published 2004).
Where “and” joins values, the source holds several entries; their conditions need not be identical. Equal values may be shown once.

Assays:
Format in all cases: cell-based
[1] = test system: U937 cells; test: Experiment 3: PMA inhibition by bisindolymaleimide, escape velocity; conditions: 10 ng/ml PMA only, four hours
Text: The objective of this experiment was to test the effect of bisindolymaleimide on cells exposed to PMA. Bisindolymaleimide is a Protein Kinase C inhibitor and should block the effect of PMA on U937 cells and their escape velocities. As shown in this and prior experiments, exposure of U937 cells to PMA results in an increase in the escape velocity of the cells. Therefore, it is anticipated that addition of bisindolymaleimide will reduce or eliminate the increase in escape velocity caused by PMA. This has in fact been observed in the data shown below.
Bisindolymaleimide was tested at two concentrations: 200 ng/ml and 50 ng/ml. Samples not treated with bisindolymaleimide received an equivalent amount of the carrier, MeOH, as a control. […] The concentration of PMA tested was 10 ng/ml. Samples not receiving PMA received DMSO.
Once the flasks were prepared, they were incubated at 37° C. 5% CO2 for four hours. At the four hour timepoint, 300 μl of cells were removed from each flask and pelleted at 5000 rpm for 5 minutes. The cells were then resuspended in 6 ml PBS/1% BSA and 60 μl trypan blue.

[2] = test system: HL-60 cells; test: Cellular differentiation of HL-60, escape velocity
Text: HL-60 is a promyelocytic leukemia cell line that retains the capacity to undergo terminal differentiation and serves as a model system to study myeloid pathways of cellular differentiation. It is known that treatment of HL-60 cells with phorbol 12-myristate 13-acetate (PMA) causes the cells to differentiate into monocytes/macrophages. In addition, it is also known that treatment of HL-60 cells with dimethylsulfoxide (DMSO) causes these same cells to undergo granulocytic differentiation.
Initial tests were performed using HL-60 cells treated with PMA. HL-60 cells were seeded at about 1-3×10^6 cells per well in six well plates. The cells were treated with 200 ng/ml PMA while the control cells were treated with ethanol (EtOH) vehicle for four hours at 37° C. After incubation for four hours the treated cells were washed with PBS and re-fed with growth media. The treated HL-60 cells were then allowed to differentiate for 72 hours in normal growth media. After the 72 hour period, the untreated control cells were collected by centrifugation, washed with PBS and pelleted for resuspension at 1.5×10^6 cells/ml in PBS/1% BSA. Treated cells were trypsinized and collected by centrifugation then washed in PBS and pelleted for resuspension at 1×10^6 cells/ml in PBS/1% BSA. The cells were the subjected to Optophoretic analysis by measuring the escape velocities of the treated and control cells. Table 23 shown below illustrates the measured escape velocities of the undifferentiated and differentiated cells at 72 hours post treatment.

[3] = test system: U937 cells; test: Experiment 1: time course dependence of PMA activation, escape velocity
Description: The objective of this experiment is to compare the escape velocities of U937 cells that have been treated with the phorbol ester, phorbol 12 myristate 13-acetate (PMA), to the escape velocity of untreated U937 cells. PMA activates the Protein Kinase C pathway and may cause the cells to go into rapid cell differentiation, which may be indicated by a shift in escape velocity. […] At the end of the activation period, the cells were centrifuged for 4 minutes at 10,000 rpm. The supernatant was then removed and the pellet resuspended in 1 ml PBS/1% BSA buffer. The cells were then centrifuged again and resuspended in buffer. The escape velocity and the cell size of cells from each tube were then calculated.
The time dependent effect of PMA was clearly present as can been seen in the shift of escape velocity to higher speeds over greater time periods.

[4] = test system: U937 cells; test: Experiment 2: time and concentration dependence of PMA, escape velocity; parameters: escape velocity, Ave.: unit not given here
Description: This experiment was conducted to test the effect of PMA concentration on the escape velocity of U937 cells. PMA concentrations of 10 ng/ml, 1 ng/ml, 100 pg/ml, 10 pg/ml and 1 pg/ml were tested. The control sample received EtOH and not PMA.
The PMA concentration was tested at three timepoints: 1 hour, 3 hours and 5 hours. At each timepoint, 300 μl of cells were removed from each flask. The cells were then spun for 5 minutes at 5000 rpm. The cells were then resuspended in […] PBS/1% BSA and […] of trypan blue.

Compound: CCCCCCCCCCCCCC(=O)O[C@@H]1[C@@H](C)[C@@]2(O)[C@@H](C=C(CO)C[C@]3(O)C(=O)C(C)=C[C@@H]23)[C@@H]2C(C)(C)[C@]12OC(C)=O [PMA, phorbol 12 myristate 13-acetate]
- average escape velocity [1]: 15.4 μm/sec
- escape velocity, Average ([2]; HL-60 + PMA at 72 hours (differentiated), 200 ng/ml PMA for four hours): 14.0 μm/sec
- Escape Velocity, individual cell ([2]; HL-60 + PMA at 72 hours (differentiated), 200 ng/ml PMA for four hours, Cell No. 1 to 20): 14.0 μm/sec (3×) and 12.5 μm/sec (3×) and 16.5 μm/sec and 14.5 μm/sec (3×) and 13.0 μm/sec (2×) and 13.5 μm/sec (2×) and 15.5 μm/sec (2×) and 15.0 μm/sec (2×) and 16.0 μm/sec and 11.0 μm/sec
- increase in measured escape velocity as compared to the control cells ([2]; HL-60 + PMA at 72 hours, on average): about 2 μm/sec
- distribution of escape velocities ([3]; 0.01 μg/ml PMA, 6 and 9 hours post treatment (FIG. 31)): clear trend toward higher escape velocities over time
- escape velocity, Average ([3]; 1 hour of PMA activation): 15.3 μm/sec
- escape velocity, Average ([3]; 6 hours of PMA activation): 28.0 μm/sec
- escape velocity, Ave. ([4]; 10 pg/ml PMA, 1 Hour Activation): 14.4
- escape velocity, Ave. ([4]; 10 pg/ml PMA, 3 Hour Activation): 14.5
- escape velocity, Ave. ([4]; 10 pg/ml PMA, 5 Hour Activation): 14.1
- escape velocity, Ave. ([4]; 100 pg/ml PMA, 1 Hour Activation): 14.4
- escape velocity, Ave. ([4]; 100 pg/ml PMA, 3 Hour Activation): 15.5
- escape velocity, Ave. ([4]; 100 pg/ml PMA, 5 Hour Activation): 16.1
- escape velocity, Ave. ([4]; 1 ng/ml PMA, 1 Hour Activation): 14.3
- escape velocity, Ave. ([4]; 1 ng/ml PMA, 3 Hour Activation): 15.1
- escape velocity, Ave. ([4]; 1 ng/ml PMA, 5 Hour Activation): 16.5
- escape velocity, Ave. ([4]; 10 ng/ml PMA, 1 Hour Activation): 14.8
- escape velocity, Ave. ([4]; 10 ng/ml PMA, 3 Hour Activation): 15.2
- escape velocity, Ave. ([4]; 10 ng/ml PMA, 5 Hour Activation): 16.2
- Optophoretic difference versus control ([4]; two lowest concentrations, 10 pg/ml and 1 pg/ml PMA): showed no Optophoretic difference
